Results as given in publication PMC7294809, “Discovery of an Allosteric Binding Site in Kinetoplastid Methionyl-tRNA Synthetase” (ACS Infectious Diseases, 2020).
In brackets after ≈: the same amount, converted by molar mass. Read-outs that look alike come from different tables or passages of the source. Blank lines part the entries; values can stand above or below the compound they belong to.

Tests used:
CHI LogD measurement = type: physicochemical
Description: CHI LogD measurements were performed as described elsewhere.[29] cLogP measurements were calculated using StarDrop (Optibrium).

LdMetRS = LdMetRS (Leishmania donovani, UniProt A0A3Q8IBX2); experiment: LdMetRS BIOMOL Green biochemical assay, 10-point dose response; conditions: 50 μM methionine, 100 μM ATP; for IC50: read-out: LdMetRS pIC50 (converted)
TcMetRS = TcMetRS (Trypanosoma cruzi, UniProt Q4D6H2); experiment: TcMetRS BIOMOL Green biochemical assay, 10-point dose response; conditions: for IC50 / Emax: 50 μM methionine, 100 μM ATP; for IC50: 80 nM TcMetRS, read-out: TcMetRS pIC50 (converted); for Emax: read-out: TcMetRS Maximum % Inhibition; for TcMetRS Maximum % Inhibition Plateau: Table 3, plateau of dose-response curve
[1] = Aqueous solubility, filtration-based method; type: physicochemical; conditions: phosphate-buffered saline pH 7.4, 24 h, 25 °C; for solubility at 24 h: aqueous buffer, kinetic from dmso stock
Description: Solubility was assessed using a filtration-based method. Test compounds were dissolved in DMSO to give 10 mM solutions. Five microliters of the 10 mM solution was added to 195 μL of phosphate-buffered saline at pH 7.4 and mixed for 24 h (rotary mixing, 900 rpm, 25 °C) excluding light. After mixing, the samples were filtered to remove any undissolved material using a Millipore Multiscreen HTS filter. The filtrate was analyzed for dissolved drug compounds using UHPLC.

[2] = chromatography (chromatographic hydrophobicity index)
[3] = 50 nM LdMetRS, pIC50 = −log IC50 (M)
[4] = plateau of dose-response curve, read-out: LdMetRS Maximum % Inhibition Plateau
[5] = chromatographic hydrophobicity index
[6] = Table 2, read-out: LdMetRS Maximum % Inhibition

Sequence of LdMetRS (A0A3Q8IBX2 entry or part of it): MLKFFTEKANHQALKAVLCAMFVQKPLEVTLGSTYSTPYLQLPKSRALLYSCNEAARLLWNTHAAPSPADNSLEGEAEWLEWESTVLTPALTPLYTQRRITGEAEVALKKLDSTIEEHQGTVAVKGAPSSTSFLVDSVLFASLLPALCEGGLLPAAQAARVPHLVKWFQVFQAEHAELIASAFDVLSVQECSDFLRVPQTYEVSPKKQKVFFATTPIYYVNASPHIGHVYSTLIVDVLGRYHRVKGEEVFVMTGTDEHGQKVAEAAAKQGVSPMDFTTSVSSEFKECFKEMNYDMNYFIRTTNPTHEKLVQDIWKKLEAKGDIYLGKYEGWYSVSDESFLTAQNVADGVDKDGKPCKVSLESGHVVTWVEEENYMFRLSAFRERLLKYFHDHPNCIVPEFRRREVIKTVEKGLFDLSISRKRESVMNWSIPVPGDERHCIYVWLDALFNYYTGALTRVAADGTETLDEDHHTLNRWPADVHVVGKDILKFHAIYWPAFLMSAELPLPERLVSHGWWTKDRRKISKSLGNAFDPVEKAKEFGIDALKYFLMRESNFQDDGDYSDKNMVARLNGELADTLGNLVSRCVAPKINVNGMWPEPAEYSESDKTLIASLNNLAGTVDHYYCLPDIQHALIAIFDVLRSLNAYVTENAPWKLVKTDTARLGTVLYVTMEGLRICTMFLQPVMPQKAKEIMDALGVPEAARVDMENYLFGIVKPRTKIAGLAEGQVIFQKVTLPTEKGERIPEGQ
Sequence of TcMetRS (Q4D6H2 entry or part of it): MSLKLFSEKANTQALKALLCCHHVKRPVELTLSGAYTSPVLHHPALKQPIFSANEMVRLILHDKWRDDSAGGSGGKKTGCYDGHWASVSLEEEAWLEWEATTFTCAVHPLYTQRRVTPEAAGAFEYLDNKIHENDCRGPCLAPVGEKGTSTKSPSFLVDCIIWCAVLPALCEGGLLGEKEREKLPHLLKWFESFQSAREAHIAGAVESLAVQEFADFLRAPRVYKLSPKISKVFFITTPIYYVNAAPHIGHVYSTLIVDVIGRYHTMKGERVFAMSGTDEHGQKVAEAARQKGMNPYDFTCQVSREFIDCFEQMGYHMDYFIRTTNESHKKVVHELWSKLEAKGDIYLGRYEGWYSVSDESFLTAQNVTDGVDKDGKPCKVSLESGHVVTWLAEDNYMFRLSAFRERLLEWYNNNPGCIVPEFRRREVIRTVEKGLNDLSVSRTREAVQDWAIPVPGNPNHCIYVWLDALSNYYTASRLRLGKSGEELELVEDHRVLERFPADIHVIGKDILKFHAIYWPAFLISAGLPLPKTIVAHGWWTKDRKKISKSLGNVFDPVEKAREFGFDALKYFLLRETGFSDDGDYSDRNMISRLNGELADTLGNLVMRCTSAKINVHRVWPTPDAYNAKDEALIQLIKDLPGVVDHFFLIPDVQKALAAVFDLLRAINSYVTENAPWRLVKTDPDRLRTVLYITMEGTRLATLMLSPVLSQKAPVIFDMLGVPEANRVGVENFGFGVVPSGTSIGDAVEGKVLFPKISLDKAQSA

Compound: Cn1ncc2c(NCCO)nc(N3CCCCC3)nc21 [Compound 10]
chromatographic logD (CHI LogD measurement; [5]): 1.49
IC50 (TcMetRS): > 100 µM
Emax (TcMetRS): 13.6%
IC50 (LdMetRS; [3]): > 0.0001 M
Emax (LdMetRS; [6]): 10.8%

Compound: Cn1ncc2c(Nc3ccc(F)c(F)c3)nc(Nc3ccc(F)c(F)c3)nc21 [Compound 17]
chromatographic logD (CHI LogD measurement; [5]): 3.82
IC50 (TcMetRS): > 100 µM
solubility at 24 h [1]: 0.38 µM (≈ 0.148 µg/mL)
IC50 (LdMetRS; [3]): > 0.0001 M

Compound: Cn1ncc2c(NC3CCOCC3)nc(Nc3ccc(F)c(F)c3)nc21 [Compound 23]
chromatographic logD (CHI LogD measurement; [5]): 2.45
IC50 (TcMetRS): > 100 µM
solubility at 24 h [1]: 0.59 µM (≈ 0.213 µg/mL)
IC50 (LdMetRS; [3]): 7.94e-06 M
Emax (LdMetRS; [4]): 65.4%

Compound: COC(=O)[C@H](Nc1nc(Nc2ccc(F)c(F)c2)nc2c1cnn2C)C(C)C [Compound 29]
chromatographic logD (CHI LogD measurement; [5]): 6.22
IC50 (TcMetRS): 10 µM
TcMetRS Maximum % Inhibition Plateau (TcMetRS): 51.5%
solubility at 24 h [1]: 39.1 µM (≈ 15.3 µg/mL)
IC50 (LdMetRS; [3]): 7.94e-07 M
Emax (LdMetRS; [4]): 100%

Compound: COC(=O)C1(Nc2nc(Nc3ccc(F)c(F)c3)nc3c2cnn3C)CC1 [Compound 32]
chromatographic logD (CHI LogD measurement; [5]): 4.91
IC50 (TcMetRS): > 100 µM
IC50 (LdMetRS; [3]): 7.94e-07 M
Emax (LdMetRS; [4]): 94.7%

Compound: Cn1ncc2c(N3CCCCC3)nc(Nc3ccc(F)c(F)c3)nc21 [Compound 24]
chromatographic logD (CHI LogD measurement; [5]): 3.93
IC50 (TcMetRS): > 100 µM
solubility at 24 h [1]: 0.46 µM (≈ 0.158 µg/mL)
LdMetRS pIC50 (LdMetRS; [3]): inactive
IC50 (LdMetRS; [3]): > 0.0001 M

Compound: Cn1ncc2c(NC3CCCCC3O)nc(Nc3ccc(F)c(F)c3)nc21 (stereo not shown) [Compound 22]
chromatographic logD (CHI LogD measurement; [5]): 2.5
IC50 (TcMetRS): > 100 µM
IC50 (LdMetRS; [3]): 3.98e-06 M
Emax (LdMetRS; [4]): 61%

Compound: Cn1ncc2c(NCCO)nc(NC3CCOCC3)nc21 [Compound 9]
chromatographic logD (CHI LogD measurement; [5]): 0.04
IC50 (TcMetRS): > 100 µM
Emax (TcMetRS): 15%
IC50 (LdMetRS; [3]): > 0.0001 M
Emax (LdMetRS; [6]): 17.3%

Compound: Cn1ncc2c(N3CCC[C@H]3CO)nc(Nc3ccc(F)c(F)c3)nc21 [Compound 25]
chromatographic logD (CHI LogD measurement; [5]): 2.43
IC50 (TcMetRS): > 100 µM
solubility at 24 h [1]: 6.1 µM (≈ 2.2 µg/mL)
IC50 (LdMetRS; [3]): 7.94e-06 M
Emax (LdMetRS; [4]): 87.7%

Compound: Cc1noc(CNc2nc(Nc3ccc(F)c(F)c3)nc3c2cnn3C)n1 [Compound 28]
IC50 (TcMetRS): > 100 µM
solubility at 24 h [1]: 0.72 µM (≈ 0.268 µg/mL)
IC50 (LdMetRS; [3]): 6.31e-06 M
Emax (LdMetRS; [4]): 68.7%

Compound: Cn1ncc2c(NCCO)nc(NC3CCCCC3)nc21 [Compound 8]
chromatographic logD (CHI LogD measurement; [5]): 1.74
IC50 (TcMetRS): > 100 µM
Emax (TcMetRS): 16.3%
IC50 (LdMetRS; [3]): > 0.0001 M
Emax (LdMetRS; [6]): 11.1%

Compound: COC(=O)C(Cc1c[nH]cn1)Nc1nc(Nc2ccc(F)c(F)c2)nc2c1cnn2C (stereo not shown) [Compound 31]
chromatographic logD (CHI LogD measurement; [5]): 3.63
IC50 (TcMetRS): 2 µM
solubility at 24 h [1]: 128 µM (≈ 54.8 µg/mL)
Aqueous Solubility [1]: good solubility
IC50 (LdMetRS; [3]): 2e-07 M
LdMetRS Maximum % Inhibition Plateau (LdMetRS; plateau of dose-response curve): full inhibition
Emax (LdMetRS; [4]): 100%

Continued, values first:

chromatographic logD (CHI LogD measurement; [2]): 1.82
IC50 (LdMetRS; [3]): 1.26e-05 M
Emax (LdMetRS; [4]): 94.7%
Compound: Cn1ncc2c(NCCO)nc(Nc3cccc(Cl)c3)nc21 [Compound 3]

IC50 (LdMetRS; [3]): 1.26e-05 M
Emax (LdMetRS; [4]): 102%
Compound: Cn1ncc2c(NCCO)nc(Nc3ccc(F)cc3F)nc21 [Compound 6]

chromatographic logD (CHI LogD measurement; [5]): 1.38
IC50 (TcMetRS): > 100 µM
solubility at 24 h [1]: 201 µM (≈ 69.8 µg/mL)
IC50 (LdMetRS; [3]): 2e-05 M
Emax (LdMetRS; [4]): 68.9%
Compound: CNC(=O)CNc1nc(Nc2ccc(F)c(F)c2)nc2c1cnn2C [Compound 26]

chromatographic logD (CHI LogD measurement; [5]): 2.49
IC50 (TcMetRS): > 100 µM
solubility at 24 h [1]: 23.3 µM (≈ 7.79 µg/mL)
IC50 (LdMetRS; [3]): 6.31e-06 M
Emax (LdMetRS; [4]): 99.7%
Compound: COCCNc1nc(Nc2ccc(F)c(F)c2)nc2c1cnn2C [Compound 21]

IC50 (LdMetRS; [3]): 7.94e-06 M
Emax (LdMetRS; [4]): 89.5%
Compound: Cn1ncc2c(NCCO)nc(Nc3ccc(Cl)cc3)nc21 [Compound 1]

chromatographic logD (CHI LogD measurement; [2]): 1.48
IC50 (LdMetRS; [3]): 3.16e-05 M
Emax (LdMetRS; [4]): 83.7%
Compound: Cn1ncc2c(NCCO)nc(Nc3cccc(F)c3)nc21 [Compound 4]

chromatographic logD (CHI LogD measurement; [2]): 1.64
IC50 (LdMetRS; [3]): 1.26e-05 M
Emax (LdMetRS; [4]): 98.7%
Compound: Cn1ncc2c(NCCO)nc(Nc3ccc(F)c(F)c3)nc21 [Compound 5]

IC50 (TcMetRS): > 100 µM
Emax (TcMetRS): 4.9%
IC50 (LdMetRS; [3]): > 0.0001 M
Emax (LdMetRS; [6]): 36.8%
Compound: COc1cc(Nc2nc(NCCO)c3cnn(C)c3n2)ccc1F [Compound 14]

chromatographic logD (CHI LogD measurement; [5]): 1.99
IC50 (TcMetRS): > 100 µM
solubility at 24 h [1]: 2.4 µM (≈ 0.802 µg/mL)
IC50 (LdMetRS; [3]): 2.51e-06 M
Emax (LdMetRS; [4]): 69.9%
Compound: CN(CCO)c1nc(Nc2ccc(F)c(F)c2)nc2c1cnn2C [Compound 20]

IC50 (LdMetRS; [3]): > 0.0001 M
Compound: COc1ccc(Nc2nc(NCCO)c3cnn(C)c3n2)cc1Cl [Compound 7]

chromatographic logD (CHI LogD measurement; [5]): 1.51
IC50 (TcMetRS): > 100 µM
Emax (TcMetRS): 11.7%
IC50 (LdMetRS; [3]): > 0.0001 M
Emax (LdMetRS; [6]): 10.2%
Compound: CN(c1cccc(F)c1)c1nc(NCCO)c2cnn(C)c2n1 [Compound 12]

chromatographic logD (CHI LogD measurement; [5]): 3.78
IC50 (TcMetRS): 39.8 µM
TcMetRS Maximum % Inhibition Plateau (TcMetRS): 93.3%
solubility at 24 h [1]: 29.8 µM (≈ 11.3 µg/mL)
IC50 (LdMetRS; [3]): 1.26e-06 M
Emax (LdMetRS; [4]): 102%
Compound: COC(=O)[C@@H](CO)Nc1nc(Nc2ccc(F)c(F)c2)nc2c1cnn2C [Compound 30]

IC50 (TcMetRS): > 100 µM
Emax (TcMetRS): 5.4%
IC50 (LdMetRS; [3]): > 0.0001 M
Emax (LdMetRS; [6]): 6.9%
Compound: CC(C)Oc1cc(Nc2nc(NCCO)c3cnn(C)c3n2)ccc1F [Compound 15]

IC50 (TcMetRS): > 100 µM
Emax (TcMetRS): 15.4%
IC50 (LdMetRS; [3]): > 0.0001 M
Emax (LdMetRS; [6]): 17.1%
Compound: CC(C)Cc1cc(Nc2nc(NCCO)c3cnn(C)c3n2)ccc1F [Compound 16]

chromatographic logD (CHI LogD measurement; [5]): 0.63
IC50 (TcMetRS): > 100 µM
Emax (TcMetRS): 6.3%
IC50 (LdMetRS; [3]): > 0.0001 M
Emax (LdMetRS; [6]): 5.3%
Compound: CC(C)Nc1nc(NCCO)c2cnn(C)c2n1 [Compound 11]

chromatographic logD (CHI LogD measurement; [5]): 2.31
IC50 (TcMetRS): > 100 µM
solubility at 24 h [1]: 58 µM (≈ 16.8 µg/mL)
IC50 (LdMetRS; [3]): 6.31e-06 M
Emax (LdMetRS; [4]): 98.7%
Compound: CNc1nc(Nc2ccc(F)c(F)c2)nc2c1cnn2C [Compound 18]

chromatographic logD (CHI LogD measurement; [2]): 1.32
IC50 (LdMetRS; [3]): 2.51e-05 M
Emax (LdMetRS; [4]): 94.2%
Compound: Cn1ncc2c(NCCO)nc(Nc3ccc(F)cc3)nc21 [Compound 2]
